Reference: patent publication US20250092017A1, “2-PIPERIDYL OR 2-PYRAZOLYL SUBSTITUTED PYRIMIDINE COMPOUND SERVING AS EGFR INHIBITOR” (SUZHOU PUHE BIOPHARMA CO., LTD., priority 2022, published 2025)
Where two headings read alike, the source gives them in different places.

Key:
EGFR (wild-type) = EGFR (wild-type) (Homo sapiens, UniProt P00533); experiment: MSA (Mobility Shift Assay) kinase activity, EGFR wild type; assay type: biochemical; conditions: read-out: EGFR wt/ IC50/nM
Method: (§1) The MSA (Mobility Shift Assay) method was used to detect the effects of small molecule inhibitors on the kinase activity of EGFR wild type and its mutants (EGFR^wt, EGFR-L858R, EGFR-L858R-T790M-C797S, EGFR-L858R-C797S).
(§2) 10 μL of kinase solution at 2.5 times the final concentration was added to the compound wells and positive control Max wells; 10 μL of 1x kinase buffer was added to the negative control Min wells. The mixture was centrifuged at 1000 rpm for 30 seconds, and the reaction plate was shaken to mix the solution well and then incubated at room temperature for 10 minutes. A mixed solution of ATP and kinase substrate at 5/3 times the final concentration was prepared in 1x kinase buffer. 15 μL of a mixed solution of ATP and substrate at 5/3 times the final concentration was added to initiate the reaction. The 384-well plate was centrifuged at 1000 rpm for 30 seconds, and shaken to mix the solution well and then incubated at room temperature for the corresponding time. 30 μL of stop detection solution was added to stop the kinase reaction, and the mixture was centrifuged at 1000 rpm for 30 seconds, and then to mixed well by shaking. The conversion rate was read using Caliper EZ Reader.
(§3) wherein: Conversion %_sample is the conversion rate reading of the sample; Conversion %_min is the mean of the negative control wells, representing the conversion rate reading of the wells without enzyme activity; Conversion %_max is the mean of the positive control wells, representing the conversion rate reading of the wells without compound inhibition.
(§4) The log (inhibitor) vs. response —Variable slope of the analysis software GraphPad Prism 5 was used to fit the dose-effect curve, where the log value of the concentration was used as the X-axis and the percentage inhibition rate was used as the Y-axis, to obtain the IC50 value of each compound on the enzyme activity.
(§5) The calculation formula is Y=Bottom+(Top-Bottom)/(1+10^((Log IC50−X)*Hill Slope))

EGFR (L858R) = EGFR (L858R) (Homo sapiens, UniProt P00533, L858R); experiment: MSA (Mobility Shift Assay) kinase activity, EGFR-L858R; assay type: biochemical
Method: as §1, §2, §3, §4, §5

EGFR (L858R/C797S) = EGFR (L858R/C797S) (Homo sapiens, UniProt P00533, C797S/L858R); experiment: MSA (Mobility Shift Assay) kinase activity, EGFR-L858R-C797S; assay type: biochemical
Method: as §1, §2, §3, §4, §5

EGFR (L858R/T790M/C797S) = EGFR (L858R/T790M/C797S) (Homo sapiens, UniProt P00533, C797S/L858R/T790M); experiment: MSA (Mobility Shift Assay) kinase activity, EGFR-L858R-T790M-C797S; assay type: biochemical
Method: as §1, §2, §3, §4, §5

Ba/F3-FL-EGFR = biological target: T1, Ba/F3-FL-EGFR (Homo sapiens, UniProt P00533); experiment: CellTiter-Glo proliferation, Ba/F3-FL-EGFR; assay type: cell-based; conditions: 72 hours, read-out: Ba/F3-FL-EGFR IC50/nM
T1 construct: FL read as full length
Method: (§6) Promega CellTiter-Glo reagent was used to detect the effects of small molecule inhibitors on the proliferation of five Ba/F3 cell lines (Ba/F3-FL-EGFR, Ba/F3-FL-EGFR-L858R, Ba/F3-FL-EGFR-L858R-T790M-C797S, Ba/F3-TEL-EGFR-L858R-C797S and Ba/F3-FL-EGFR-del19-C797S).
(§7) The cell lines were cultured in an incubator at 37° C. and 5% CO2. Cells were passaged regularly and cells in the logarithmic phase were used for plating. 95 μL of cell suspension was added to each well of the cell plate, and culture medium without cells (containing 0.1% DMSO) was added to the Min control wells. Substance addition for compound detection cell plate: 5 μL of 20× compound working solution was added to the cell culture plate as shown in the table below. 50 μL of DMSO-cell culture medium mixture was added to the Max control, with the final DMSO concentration of 0.1%. 5 μL of DMSO-cell culture medium mixture was added to the Max control. The final DMSO concentration was 0.1%.
(§8) The compounds to be tested were added as per the table below
(§9) Cell viability was detected by CellTiter-Glo luminescence assay. Data analysis:
(§10) The cell proliferation inhibition rate (Inhibition Rate) data was processed using the following formula: […]
(§11) wherein: RLUDrug represents the relative luminescence unit of the cells with the addition of drug, RLUMin represents the luminescence unit of the culture medium, and RLUMax represents the relative luminescence unit of the cells with the addition of DMSO.
(§12) The inhibition rates corresponding to different concentrations of compounds were calculated in EXCEL, and then the inhibition rate curve was plotted using GraphPad Prism software and related parameters including the maximum and minimum inhibition rates of cells and IC50 values were calculated.

Ba/F3-FL-EGFR-L858R = Ba/F3-FL-EGFR-L858R (Homo sapiens, UniProt P00533, L858R, cells depend on it); experiment: CellTiter-Glo proliferation, Ba/F3-FL-EGFR-L858R; assay type: cell-based; conditions: 72 hours, read-out: Ba/F3-FL-EGFR-L858R IC50/nM
Method: as §6, §7, §8, §9, §10, §11, §12

[1] = biological target: T2, Ba/F3-TEL-EGFR-L858R-C797S (Homo sapiens, UniProt P00533, C797S/L858R, cells depend on it); experiment: CellTiter-Glo proliferation, Ba/F3-TEL-EGFR-L858R-C797S; assay type: cell-based; conditions: 72 hours, read-out: Ba/F3-TEL-EGFR-L858R-C797S IC50/nM
T2 construct: fused on or other part: N-terminal TEL (ETV6) oligomerising part fused to the EGFR intracellular/kinase part; P41212 (Transcription factor ETV6)
Method: as §6, §7, §8, §9, §10, §11, §12

[2] = biological target: Ba/F3-FL-EGFR-L858R-T790M-C797S (Homo sapiens, UniProt P00533, T790M/C797S/L858R, cells depend on it); experiment: CellTiter-Glo proliferation, Ba/F3-FL-EGFR-L858R-T790M-C797S; assay type: cell-based; conditions: 72 hours, read-out: Ba/F3-FL-EGFR-L858R-T790M-C797S IC50/nM
Method: as §6, §7, §8, §9, §10, §11, §12

[3] = tested on: Ba/F3-FL-EGFR-del19-C797S; experiment: CellTiter-Glo proliferation, Ba/F3-FL-EGFR-del19-C797S; assay type: cell-based; conditions: proliferation, 72 hours, CellTiter-Glo, read-out: Ba/F3-FL-EGFR-del19-C797S IC50/nM
Method: as §6, §7, §8, §9, §10, §11, §12

Sequence of EGFR (wild-type) (P00533 25-1210): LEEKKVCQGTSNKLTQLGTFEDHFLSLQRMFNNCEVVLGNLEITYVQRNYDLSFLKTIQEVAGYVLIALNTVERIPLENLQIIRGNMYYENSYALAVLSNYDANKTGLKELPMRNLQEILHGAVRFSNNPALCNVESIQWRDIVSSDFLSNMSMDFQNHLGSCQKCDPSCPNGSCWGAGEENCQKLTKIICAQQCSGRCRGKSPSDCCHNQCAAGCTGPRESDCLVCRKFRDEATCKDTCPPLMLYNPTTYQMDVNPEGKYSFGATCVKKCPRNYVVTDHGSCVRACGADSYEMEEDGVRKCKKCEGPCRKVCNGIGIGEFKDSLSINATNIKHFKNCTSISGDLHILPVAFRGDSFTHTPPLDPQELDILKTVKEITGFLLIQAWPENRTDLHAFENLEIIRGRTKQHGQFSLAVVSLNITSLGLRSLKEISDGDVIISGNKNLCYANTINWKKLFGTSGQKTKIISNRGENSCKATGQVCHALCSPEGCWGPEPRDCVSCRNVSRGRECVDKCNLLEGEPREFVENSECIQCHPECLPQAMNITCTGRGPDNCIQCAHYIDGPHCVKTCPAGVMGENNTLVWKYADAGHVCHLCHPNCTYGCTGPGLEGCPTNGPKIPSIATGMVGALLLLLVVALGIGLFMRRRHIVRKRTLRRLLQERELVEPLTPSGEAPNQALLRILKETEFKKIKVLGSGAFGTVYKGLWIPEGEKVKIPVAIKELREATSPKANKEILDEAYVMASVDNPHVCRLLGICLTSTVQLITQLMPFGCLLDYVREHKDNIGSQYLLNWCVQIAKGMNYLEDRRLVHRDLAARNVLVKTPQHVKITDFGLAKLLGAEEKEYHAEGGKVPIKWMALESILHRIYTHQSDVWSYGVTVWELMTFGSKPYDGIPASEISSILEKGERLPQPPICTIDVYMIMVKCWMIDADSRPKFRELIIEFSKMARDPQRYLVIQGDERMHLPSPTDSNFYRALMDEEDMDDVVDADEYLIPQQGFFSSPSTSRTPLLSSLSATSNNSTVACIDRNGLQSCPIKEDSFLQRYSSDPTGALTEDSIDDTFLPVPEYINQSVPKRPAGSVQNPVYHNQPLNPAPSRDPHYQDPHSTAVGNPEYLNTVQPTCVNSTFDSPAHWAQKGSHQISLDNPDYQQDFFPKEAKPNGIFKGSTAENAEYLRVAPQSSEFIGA
Sequence of Ba/F3-FL-EGFR-L858R (P00533 whole entry L858R): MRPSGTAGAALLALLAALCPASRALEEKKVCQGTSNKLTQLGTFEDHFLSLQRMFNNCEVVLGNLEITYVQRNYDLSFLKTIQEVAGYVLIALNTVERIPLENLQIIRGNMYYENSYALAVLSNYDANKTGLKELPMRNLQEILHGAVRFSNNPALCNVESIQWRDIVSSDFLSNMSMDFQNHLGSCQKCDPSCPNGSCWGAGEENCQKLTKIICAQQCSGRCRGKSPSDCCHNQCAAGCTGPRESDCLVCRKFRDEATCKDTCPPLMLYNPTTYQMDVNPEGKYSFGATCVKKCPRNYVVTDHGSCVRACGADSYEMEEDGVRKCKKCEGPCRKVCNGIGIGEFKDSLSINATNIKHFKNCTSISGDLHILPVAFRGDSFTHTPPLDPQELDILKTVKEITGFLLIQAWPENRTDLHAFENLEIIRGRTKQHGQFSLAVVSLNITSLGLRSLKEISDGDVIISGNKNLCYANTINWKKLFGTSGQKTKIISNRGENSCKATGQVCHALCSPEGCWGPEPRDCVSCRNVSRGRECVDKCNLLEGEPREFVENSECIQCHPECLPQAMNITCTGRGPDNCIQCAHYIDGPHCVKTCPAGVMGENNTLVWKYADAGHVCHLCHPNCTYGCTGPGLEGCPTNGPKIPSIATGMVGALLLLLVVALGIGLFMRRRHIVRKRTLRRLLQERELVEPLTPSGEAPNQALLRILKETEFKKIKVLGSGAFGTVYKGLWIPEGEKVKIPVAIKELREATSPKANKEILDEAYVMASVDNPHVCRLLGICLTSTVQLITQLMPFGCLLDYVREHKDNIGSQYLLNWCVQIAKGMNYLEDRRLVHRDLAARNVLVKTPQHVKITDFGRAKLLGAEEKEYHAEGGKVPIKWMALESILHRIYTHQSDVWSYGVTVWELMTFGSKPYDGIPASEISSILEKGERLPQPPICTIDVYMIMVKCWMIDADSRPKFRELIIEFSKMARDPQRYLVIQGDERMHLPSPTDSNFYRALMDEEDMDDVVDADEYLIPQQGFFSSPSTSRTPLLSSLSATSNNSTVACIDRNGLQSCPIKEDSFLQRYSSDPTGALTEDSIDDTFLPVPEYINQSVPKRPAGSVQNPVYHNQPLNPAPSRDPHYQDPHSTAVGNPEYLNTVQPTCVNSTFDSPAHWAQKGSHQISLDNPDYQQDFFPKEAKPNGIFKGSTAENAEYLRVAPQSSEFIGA
Sequence of EGFR (L858R) (P00533 25-1210 L858R): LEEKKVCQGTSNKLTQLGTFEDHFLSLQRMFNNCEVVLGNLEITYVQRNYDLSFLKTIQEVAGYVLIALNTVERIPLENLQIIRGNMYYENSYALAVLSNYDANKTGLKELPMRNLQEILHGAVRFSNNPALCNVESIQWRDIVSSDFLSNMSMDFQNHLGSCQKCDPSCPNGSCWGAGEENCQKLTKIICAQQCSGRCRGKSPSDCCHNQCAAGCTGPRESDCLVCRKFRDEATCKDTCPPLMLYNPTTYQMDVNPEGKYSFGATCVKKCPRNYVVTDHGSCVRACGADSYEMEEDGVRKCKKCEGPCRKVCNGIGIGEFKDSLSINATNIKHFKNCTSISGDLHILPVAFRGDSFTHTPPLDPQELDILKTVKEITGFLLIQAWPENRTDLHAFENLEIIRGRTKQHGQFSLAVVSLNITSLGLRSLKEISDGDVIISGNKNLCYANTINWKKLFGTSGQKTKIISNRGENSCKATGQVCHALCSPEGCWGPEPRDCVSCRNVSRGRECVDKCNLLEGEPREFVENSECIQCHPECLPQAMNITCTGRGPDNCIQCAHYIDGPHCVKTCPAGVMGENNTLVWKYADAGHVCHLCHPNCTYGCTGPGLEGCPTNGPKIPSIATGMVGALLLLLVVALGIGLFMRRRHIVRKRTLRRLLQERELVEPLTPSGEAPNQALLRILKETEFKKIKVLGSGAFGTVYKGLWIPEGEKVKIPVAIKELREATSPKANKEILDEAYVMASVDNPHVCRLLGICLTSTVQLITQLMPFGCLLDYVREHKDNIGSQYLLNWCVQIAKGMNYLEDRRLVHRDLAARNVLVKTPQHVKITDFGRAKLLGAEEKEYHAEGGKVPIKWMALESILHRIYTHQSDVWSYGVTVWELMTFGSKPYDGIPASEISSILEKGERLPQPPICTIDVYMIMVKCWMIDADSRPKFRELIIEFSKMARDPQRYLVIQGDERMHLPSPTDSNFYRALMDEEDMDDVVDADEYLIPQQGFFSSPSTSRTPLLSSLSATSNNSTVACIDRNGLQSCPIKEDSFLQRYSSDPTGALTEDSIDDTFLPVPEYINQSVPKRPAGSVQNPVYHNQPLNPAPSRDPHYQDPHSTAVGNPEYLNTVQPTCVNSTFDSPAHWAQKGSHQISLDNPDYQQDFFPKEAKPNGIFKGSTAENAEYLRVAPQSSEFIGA
T1 sequence (P00533 whole entry, change not shown): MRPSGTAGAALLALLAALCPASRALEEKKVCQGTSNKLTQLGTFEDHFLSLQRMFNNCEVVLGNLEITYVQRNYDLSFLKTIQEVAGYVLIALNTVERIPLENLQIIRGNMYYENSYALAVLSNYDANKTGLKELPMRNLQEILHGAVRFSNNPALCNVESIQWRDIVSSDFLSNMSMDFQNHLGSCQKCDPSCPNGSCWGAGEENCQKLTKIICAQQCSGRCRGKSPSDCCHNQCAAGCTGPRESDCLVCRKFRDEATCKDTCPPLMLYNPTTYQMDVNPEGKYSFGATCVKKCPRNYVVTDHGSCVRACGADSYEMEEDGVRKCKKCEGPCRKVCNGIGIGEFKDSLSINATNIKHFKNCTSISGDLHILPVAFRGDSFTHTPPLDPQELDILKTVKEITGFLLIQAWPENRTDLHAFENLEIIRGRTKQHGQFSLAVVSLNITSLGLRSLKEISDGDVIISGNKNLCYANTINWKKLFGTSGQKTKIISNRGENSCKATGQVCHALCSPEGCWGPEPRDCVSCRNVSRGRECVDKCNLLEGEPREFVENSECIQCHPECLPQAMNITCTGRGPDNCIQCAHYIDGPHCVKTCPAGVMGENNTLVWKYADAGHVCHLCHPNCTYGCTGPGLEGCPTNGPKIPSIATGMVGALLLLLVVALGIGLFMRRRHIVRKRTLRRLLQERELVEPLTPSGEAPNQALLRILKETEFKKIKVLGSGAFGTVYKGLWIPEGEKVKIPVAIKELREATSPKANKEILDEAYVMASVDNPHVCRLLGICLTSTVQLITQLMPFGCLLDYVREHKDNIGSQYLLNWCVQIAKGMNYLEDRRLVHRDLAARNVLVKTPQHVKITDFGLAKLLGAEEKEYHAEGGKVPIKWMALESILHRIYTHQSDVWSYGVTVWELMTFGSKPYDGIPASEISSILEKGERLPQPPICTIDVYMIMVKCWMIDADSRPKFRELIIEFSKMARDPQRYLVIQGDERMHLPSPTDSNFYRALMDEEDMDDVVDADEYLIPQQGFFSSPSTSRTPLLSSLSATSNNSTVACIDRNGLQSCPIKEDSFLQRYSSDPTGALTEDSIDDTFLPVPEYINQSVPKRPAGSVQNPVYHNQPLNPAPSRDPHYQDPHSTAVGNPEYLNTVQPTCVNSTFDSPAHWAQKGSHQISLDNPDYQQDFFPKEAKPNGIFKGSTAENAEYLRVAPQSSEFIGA

IC50 (EGFR (wild-type)) [nM] | IC50 (EGFR (L858R)) [nM] | IC50 (EGFR (L858R/C797S)) [nM] | IC50 (EGFR (L858R/T790M/C797S)) [nM] | GI50 (Ba/F3-FL-EGFR) [nM] | GI50 (Ba/F3-FL-EGFR-L858R) [nM] | GI50 [1] [nM] | GI50 [2] [nM] | IC50 ([3]; 72 h) [nM] | IC50 [3] [nM] | SMILES
20.7 | 4.1 | 7.6 | 0.18 | 2780 | 181 | 61 | 38 | 265 | – | CC(C)c1ccc(N2CC(NS(C)(=O)=O)C2)c2cnc(Nc3ccnc(N4CCC(O)C(C)(F)C4)n3)cc12 (stereo not drawn) [Compound P45]
11.4 | 1.8 | 2.5 | 0.91 | 640 | 44 | 18 | 158 | 23 | – | CC(C)c1ccc(N2CC(CS(C)(=O)=O)C2)c2cnc(Nc3ccnc(-c4cnn(S(=O)(=O)C5CCC5)c4)n3)cc12 [Compound H13]
17.9 | 5.8 | 10.6 | 0.71 | 889 | 55 | 43 | 248 | – | – | CC(C)c1ccc(N2CC3(CC(S(C)(=O)=O)C3)C2)c2cnc(Nc3ccnc(-c4cnn(S(=O)(=O)C5CC5)c4)n3)cc12 [Compound P3]
11.7 | 5.6 | 4.7 | 0.7 | 854 | – | 188 | 462 | – | 216 | CC(C)c1ccc(N2CC(CS(C)(=O)=O)C2)c2cnc(Nc3ccnc(-c4cn[nH]c4)n3)cc12 [Compound H3]
> 100 | > 100 | > 100 | 1.9 | – | – | – | – | – | – | CC(C)c1ccc(N2CC(c3cccnc3)C2)c2cnc(Nc3ccnc(N4CCC(O)C(F)C4)n3)cc12 (stereo not drawn) [Compound P12]
> 100 | > 100 | > 100 | 7.1 | – | – | – | – | – | – | CC(C)c1cc(C(F)(F)F)c(N2CC3(CC(CS(C)(=O)=O)C3)C2)c2cnc(Nc3ccnc(N4CCC(O)C(F)C4)n3)cc12 (stereo not drawn) [Compound P5]
33.8 | 7.8 | 8.2 | 0.11 | – | – | – | – | – | – | CC(C)c1ccc(N2CC(NS(=O)(=O)C3CC3)C2)c2cnc(Nc3ccnc(N4CCC(O)C(F)C4)n3)cc12 (stereo not drawn) [Compound P23]
5.2 | 1.5 | 2.2 | 0.3 | 559 | – | 40 | 90 | – | 48 | CCCS(=O)(=O)n1cc(-c2nccc(Nc3cc4c(C(C)C)ccc(N5CC(CS(C)(=O)=O)C5)c4cn3)n2)cn1 [Compound H6]
> 100 | > 100 | > 100 | 4.8 | – | – | – | – | – | – | CC(C)c1ccc(N2CC3(C2)CN(S(C)(=O)=O)C3)c2cnc(Nc3ccnc(N4CCC(O)C(F)C4)n3)cc12 (stereo not drawn) [Compound P11]
> 100 | > 100 | > 100 | 71.6 | – | – | – | – | – | – | COc1cccc(-c2nccc(Nc3cc4c(C(C)C)ccc(N5CC(CS(C)(=O)=O)C5)c4cn3)n2)n1 [Compound H2]
30.2 | 7.1 | 11 | 0.19 | 2020 | 176 | 52 | 38 | – | – | CC(C)c1ccc(N2CC(CS(C)(=O)=O)C2)c2cnc(Nc3ccnc(N4CCC(O)C(F)C4)n3)cc12 (stereo not drawn) [Control A, reference compound]
> 100 | 98.9 | > 100 | 1.7 | – | – | – | – | – | – | CNC(=O)CN1CC(c2ccc(C(C)C)c3cc(Nc4ccnc(N5CCC(O)C(F)C5)n4)ncc23)C1 (stereo not drawn) [Compound P15]
90.9 | 20.5 | 43.1 | 0.42 | – | – | – | – | – | – | CNC(=O)CC1CN(c2ccc(C(C)C)c3cc(Nc4ccnc(N5CCC(O)C(F)C5)n4)ncc23)C1 (stereo not drawn) [Compound P20]
80.7 | 9.5 | 11.8 | 0.12 | – | – | – | – | – | – | CC(C)n1c(=O)cc(N2CC(CS(C)(=O)=O)C2)c2cnc(Nc3ccnc(N4CCC(O)C(F)C4)n3)cc21 (stereo not drawn) [Compound P14]
50.5 | 14 | 22 | 0.21 | 7380 | 771 | 271 | 554 | – | – | CC(C)c1ccc(N2CC(CC(N)=O)C2)c2cnc(Nc3ccnc(N4CCC(O)C(F)C4)n3)cc12 (stereo not drawn) [Compound P7]
> 100 | > 100 | > 100 | 30.9 | – | – | – | – | – | – | CC(C)c1ccc(N2C[C@@H](NS(C)(=O)=O)[C@@H]2C)c2cnc(Nc3ccnc(N4CCC(O)C(F)C4)n3)cc12 (stereo partly drawn) [Compound P26]
> 100 | 43 | > 100 | 6.7 | – | – | – | – | – | – | CC(C)c1ccc(N2CC3(CC(S(C)(=O)=O)C3)C2)c2cnc(Nc3ccnc(N4CCC(O)C(F)C4)n3)cc12 (stereo not drawn) [Compound P2]
64 | 13 | 27 | 0.34 | – | – | – | – | – | – | CC(C)c1ccc(N2CC(NS(=O)(=O)c3cccnc3)C2)c2cnc(Nc3ccnc(N4CCC(O)C(F)C4)n3)cc12 (stereo not drawn) [Compound P28]
6.1 | 2.1 | 2.9 | 0.3 | 628 | 46 | 39 | 146 | – | – | CC(C)c1ccc(N2CC(CC(N)=O)C2)c2cnc(Nc3ccnc(-c4cnn(S(=O)(=O)C5CC5)c4)n3)cc12 [Compound H4]
> 100 | > 100 | > 100 | 3.4 | – | – | – | – | – | – | CC(C)c1ccc(N2CC(CP(C)(C)=O)C2)c2cnc(Nc3ccnc(N4CCC(O)C(F)C4)n3)cc12 (stereo not drawn) [Compound P9]
> 100 | 73.4 | > 100 | 1.6 | – | – | – | – | – | – | CC(C)c1ccc(N2CC(C[S+](C)[O-])C2)c2cnc(Nc3ccnc(N4CCC(O)C(F)C4)n3)cc12 (stereo not drawn) [Compound P17]
> 100 | 31.2 | 34.5 | 1 | – | – | – | – | – | – | CC(C)n1c(=O)cc(N2CC(CS(C)(=O)=O)C2)c2cnc(Nc3ccnc(N4CCC(O)CC4)n3)cc21 [Compound P13]
> 100 | > 100 | > 100 | 3.4 | – | – | – | – | – | – | CC(C)n1c(=O)nc(N2CC(CS(C)(=O)=O)C2)c2cnc(Nc3ccnc(N4CCC(O)C(F)C4)n3)cc21 (stereo not drawn) [Compound P19]
